In PubChem BioAssay (NCI):
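Tested at 5 concentrations; 48 h exposure; 96-well plates; endpoints linearly interpolated, else capped at highest concentration. Here, GI50 denotes the concentration required for 50% inhibition of growth. TGI marks complete inhibition of growth.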

How the values were obtained:
Test in all cases: inhibition of tumour cell growth, NCI panel, 48 h
HCT-15 colon = tested on: HCT-15 colon
IGROV1 ovarian = tested on: IGROV1 ovarian
MCF7 breast = tested on: MCF7 breast
OVCAR-8 ovarian = tested on: OVCAR-8 ovarian
SK-MEL-2 melanoma = tested on: SK-MEL-2 melanoma
SN12C renal = tested on: SN12C renal
KM12 colon = tested on: KM12 colon
SF-539 CNS = tested on: SF-539 CNS
SNB-75 CNS = tested on: SNB-75 CNS
UACC-62 melanoma = tested on: UACC-62 melanoma

| Compound | TGI (HCT-15 colon) | TGI (IGROV1 ovarian) | TGI (MCF7 breast) | TGI (OVCAR-8 ovarian) | TGI (SK-MEL-2 melanoma) | TGI (SN12C renal) | GI50 (HCT-15 colon) | GI50 (IGROV1 ovarian) | GI50 (KM12 colon) | TGI (KM12 colon) | GI50 (MCF7 breast) | GI50 (SF-539 CNS) | TGI (SF-539 CNS) | GI50 (SK-MEL-2 melanoma) | GI50 (SN12C renal) | GI50 (SNB-75 CNS) | TGI (SNB-75 CNS) | GI50 (UACC-62 melanoma) | TGI (UACC-62 melanoma) | GI50 (OVCAR-8 ovarian) |
| --- | --- | --- | --- | --- | --- | --- | --- | --- | --- | --- | --- | --- | --- | --- | --- | --- | --- | --- | --- | --- |
| CC[C@@H]1ON(C)[C@H]2CN(C)C(=O)[C@@H]12 | > 100 µM | > 100 µM | > 100 µM | > 100 µM | > 100 µM | > 100 µM |  |  |  |  |  |  |  |  |  |  |  |  |  |  |
| c1ccc(N2N=C(c3cccc(Nc4ccncc4)c3)CC2c2ccc3c(c2)OCO3)cc1 (centres undefined) | 3.38 µM | 3.6 µM | 4.25 µM |  | 4.01 µM | 3.25 µM | 1.49 µM | 1.7 µM | 1.51 µM | 3.18 µM | 1.74 µM | 1.7 µM | 3.18 µM | 2.02 µM | 1.71 µM | 1.47 µM | 3.74 µM | 1.73 µM | 3.24 µM |  |
| C=C(C)C(=O)O[C@H]1CC2=C[C@@H](C[C@@]3(C)O[C@@H]3[C@H]3OC(=O)C(=C)[C@@H]31)OC2=O | 2.72 µM | 9.46 µM | 5.42 µM | 0.707 µM | 8.81 µM | 8.02 µM | 0.773 µM |  |  | 8.6 µM |  |  | 8.21 µM |  |  |  | 18.4 µM |  | 7.61 µM | 0.406 µM |
| COc1ccc2c(c1O)-c1cc(O)cc3c1[C@@H](C2)N(C)CC3 | 140 µM | 139 µM | 129 µM | 8.27 µM | 43.4 µM | 183 µM |  |  |  | 114 µM |  |  | 153 µM |  |  |  | 124 µM |  | 136 µM |  |
| COc1cc(C2S/C(=C/c3ccccc3)C(=O)N2c2ccc(NC(C)=O)cc2)cc(OC)c1OC (centres undefined) | 46.7 µM |  | > 100 µM | 76.9 µM | 20.3 µM | 60.3 µM |  |  |  | 31 µM |  |  |  |  |  |  | 37.5 µM |  | > 100 µM |  |
| COc1nc2ccc(COc3ccc(C(=O)NC(CCC(=O)O)C(=O)O)cc3)cc2nc1OC (centres undefined) | > 10 µM | > 10 µM | > 10 µM |  | > 10 µM | > 10 µM |  |  |  | > 10 µM |  |  | > 10 µM |  |  |  | > 10 µM |  | > 10 µM |  |
| NC(=S)N/N=C/c1nccc2ccccc12 | > 100 µM | > 100 µM |  | > 100 µM | > 100 µM | > 100 µM |  |  |  | > 100 µM |  |  | 9.11 µM |  |  |  | 13.6 µM |  | 14.7 µM |  |
| Cc1nc2c(c(=O)[nH]1)S/C(=C(/C#N)c1nc3ccccc3[nH]1)N2c1ccccc1 | > 100 µM | > 100 µM |  | > 100 µM | > 100 µM | > 100 µM |  |  |  | > 100 µM |  |  | > 100 µM |  |  |  | > 100 µM |  | > 100 µM |  |
| O=C1C(Cl)N(c2cccc(Cl)c2)C1c1c[nH]c2ccccc12 (centres undefined) |  | > 100 µM |  | > 100 µM | > 100 µM | > 100 µM |  |  |  | > 100 µM |  |  | > 100 µM |  |  |  | > 100 µM |  | > 100 µM |  |
